The record followed here is patent publication US20220347167A1, “A NEW TREATMENT FOR MEIBOMIAN GLAND DYSFUNCTION” (The Schepens Eye Research Institute, Inc., priority 2019, published 2022).

One assay concerns DNase II. The assay can be described thus: DNase II activity by single radial enzyme diffusion assay (SREDA) in IHMGECs. Format: cell-based, human. The protocol: After being treated with 21% O2, 1% O2, 10 μM Roxa or a combination for 10 days, cell numbers were counted with a hemocytometer and the cell lysates and cell culture supernatants were collected, as previously described in Liu et al. (2019) The ocular surface 17(2):310-317. DNase II activity in fresh samples was analyzed by SREDA in agarose gels according to published protocols in Liu et al. (2019) The ocular surface 17(2):310-317 and Oka et al. (2012) Nature 485:251-255. Cell lysates and culture media were used to measure the DNase II activity inside and outside of the cells, respectively [Liu et al. (2019) The ocular surface 17(2):310-317]. After incubation for 3-24 hours at 37° C., the area of the dark circle in the gel was measured under an UV trans-illuminator at 312 nm. For comparison between conditions, values were normalized to cell number.
Low O2 increases DNase II activity and promotes cell terminal differentiation of IHMGECs (Liu et al. Ocul Surf 2019; 17:310-317). To determine whether Roxa treatment can reproduce this hypoxic effect, IHMGECs were treated with Roxa in both normoxic and 1% O2 conditions for 10 days, prior to counting cell numbers and analyzing DNase II activity in cell lysates and supernatants.

In a further assay the test system is IHMGECs. In words: HPTLC analysis of nonpolar lipids and phospholipids in IHMGEC lipid extracts. To be noted: Roxa, 4 days. Format: cell-based, human. The protocol:
Authenticated IHMGECs were grown and passaged in keratinocyte serum-free medium (KSFM) with 5 ng/mL epidermal growth factor (EGF) and 50 μg/mL bovine pituitary extract (BPE) (Thermo Fisher Scientific, Waltham, Mass.) under 21% O2 (normoxia) [Liu et al. (2010) Investigative ophthalmology & visual science 51:3993-4005; McDermott et al. (2018) Current eye research 43:1097-1101; Liu et al. (2013) Investigative ophthalmology & visual science 54:2541-2550]. Upon reaching 60% to 70% confluence, culture media were replaced by a 1:1 mixture of Dulbecco's modified Eagle's medium and Ham's F12 (DMEM/F12, Corning Life Sciences, Tewksbury, Mass.), supplemented with 10% fetal bovine serum (FBS, Atlanta Biologicals, Flowery Branch, Ga.) [Sullivan et al. (2014) Investigative ophthalmology & visual science 55:3866-3877; Liu et al. (2014) JAMA ophthalmology 132:226-228]. Cells were cultured for 4-10 days under 21% O2 (normoxic) or 1% O2 (hypoxic) conditions. Culture plates of cells in the hypoxic condition were incubated inside hypoxia chambers filled with a premade 1% O2, 5% CO2 and 94% N2 gas mixture (Linde Gas North America, Hammond, Ind.), according to published protocols in Liu et al. (2019) The ocular surface 17(2):310-317 and Wright and Shay (2006) Nat Protoc 1:2088-2090. Following cell medium changes, the chambers were re-flushed with the gas mixture before returning to the incubator. Cells were cultured in the presence or absence of 50 μM Roxa (Selleck Chemical, Houston, Tex.) under normoxic or hypoxic conditions for 4 to 10 days. Cell culture experiments (n=3 wells/treatment) were repeated at least 3 times.
Cells seeded in 10-cm polystyrene-coated dishes (Corning, Falcon) were extracted with chloroform and methanol, and the lipid extractions were separated by high-performance thin-layer chromatography (HPTLC), as previously described in Liu et al. Toxicology 2014; 320:1-5, Liu and Ding (2014) Investigative ophthalmology & visual science 55:5596-5601, and Liu et al. (2015) Cornea 34:342-346. In brief, for nonpolar lipid analysis, the plate (Silica Gel 60, Merck, Darmstadt, Germany) was developed in hexane: diethyl ether: acetic acid (80:20:1.5, vol/vol/vol) alone. For phospholipids analysis, the plate was developed sequentially in chloroform:ethanol:water (60:30:5 vol/vol/vol) and then hexane:diethyl ether:acetic acid (80:20:1.5, vol/vol/vol) [Liu and Ding (2014) Investigative ophthalmology & visual science 55:5596-5601]. Bands were visualized according to published protocols [Ponec et al. (1988) Journal of lipid research 29:949-961], and the intensities of bands were quantified using ImageJ [Liu and Ding (2014) Investigative ophthalmology & visual science 55:5596-5601].
To examine whether 1% O2 exposure and/or Roxa administration stimulate the accumulation of neutral lipids within IHMGECs [Liu et al. (2019) Ocul Surf 17:310-317], IHMGECs were treated with Roxa ([…]) in either normoxic (21% O2) or hypoxic (1% O2) environments conditions for 4 days.

The mark [1] stands for this setting: Roxa alone, 21% O2, 10 days, normalized to cell number.
The mark [2] stands for this setting: under either normoxic or hypoxic conditions, vs controls.

Turning to `Cc1nc(C(=O)NCC(=O)O)c(O)c2ccc(Oc3ccccc3)cc12` [Roxa, roxadustat], in the assay with DNase II (setting [1]), the “DNase II activity in IHMGEC culture supernatants” value is reported as “significantly increased” and the “DNase II activity in IHMGEC lysates” value is “significantly increased”. Further, in the assay on DNase II (Roxa in 1% O2, 10 days, lysates and supernatants, vs 1% O2 alone and Roxa alone), the “magnitude of DNase II activity increase, Roxa and low O2 combination” value is listed as “greatest”. In the assay on IHMGECs, the “amount of cholesterol esters in IHMGECs” value is “Neither Roxa nor 1% O2 had any effect”, the “amount of lysophosphatidylcholines in IHMGECs” value is recorded as “Neither Roxa nor 1% O2 had any effect”, the “amount of phosphatidic acid in IHMGECs” value is reported as “Neither Roxa nor 1% O2 had any effect” and the “amount of phosphatidylcholine in IHMGECs” value is recorded as “Neither Roxa nor 1% O2 had any effect”. In addition, in the assay with IHMGECs, the “amount of phosphatidylethanolamine in IHMGECs” value was “Neither Roxa nor 1% O2 had any effect”, the “amount of phosphatidylinositol in IHMGECs” value was “Neither Roxa nor 1% O2 had any effect”, the “amount of wax esters in IHMGECs” value is “Neither Roxa nor 1% O2 had any effect” and the “expression of unidentified polar lipids in IHMGECs (HPTLC)” value is reported as “appeared to enhance”. In addition, in the assay with IHMGECs (setting [2]), the “levels of free fatty acids (FFAs) in IHMGECs (HPTLC)” value was “increased” and the “levels of triglycerides in IHMGECs (HPTLC)” value is given as “increased”.
